# Columns and labels:
# Type in all cases: physicochemical
# [1] = Ratios of molecules diffused through the sticks over time
# Description: Furthermore, as small molecules diffuse more, it happens that they lose intensity over the course of the study, so the ratios are different 24 hours after immersing the sticks in the liquid and 21 days later. Here are the ratios for each pheromone studied at the start of the study and at the end.
# [2] = DAP PCDS direct diffusion (SPME-GC/MS); conditions: DAP/PCDS diffuser, 40 mL, 6 capillaries
# Description: Three diffusers, each containing 40 mL of solution and 6 capillaries, were prepared and diffused. The first points were measured at T=1d, T=2, and T=3d, then every Monday, Wednesday and Friday of each study week until the diffusers no longer contained any solution. To measure the pheromone released into the air at each study time, the diffuser is first weighed (with the sticks) to measure mass loss, then placed in an enclosed area (in this case, an upside-down aquarium) containing a SPME fiber, as shown in FIG. 24.
# The fiber is left to diffuse above the diffuser for 2 hours (a time determined in a previous method development as the optimum time for molecules to adsorb to the phase), then analyzed using the gas chromatography/mass spectrometry (GC/MS) technique.
# Three diffusers were studied for greater accuracy. The chromatograms obtained are reprocessed using GC/MS Solution software.
# For each chromatographic peak, the area is recorded using GC/MS Solution software, then entered into an Excel spreadsheet. Diffusion curves giving the area of the chromatographic peak corresponding to each active ingredient as a function of time are then plotted.
# Analyses were carried out by gas chromatography/mass spectrometry (GC/MS). The instrument was a Shimadzu GCMS QP2010SE® equipped with an AOC 6000® autosampler. Separation was carried out on a ZB-FFAP® column (30 m×0.25 mm×0.25 μm, stationary phase: nitroterephthalic acid-modified polyethylene glycol) supplied by Phenomenex. The furnace temperature was initially set at 80° C. for 1 minute, then increased at 10° C./min to 240° C. and maintained at this temperature for 2 minutes. The carrier gas was helium at a flow rate of 1 mL/min. Analysis time is 19 minutes.
# The injector is a split/splitless injector used in split mode (temperature: 250° C., split: 50:1). The SPME fiber was injected directly into the injector and left to desorb for 15 minutes.
# The separated molecules were detected using a mass spectrometer equipped with an electron impact source (temperature: 200° C.). The analyzer is a simple quadrupole. The interface temperature is 250° C. Data were acquired in FASST mode (Fast automated SCAN/SIM type), i.e. part of the analysis was performed by scanning all ions (SCAN) and part by selecting specific ions (SIM). Target molecules were thus analyzed using ion selection.
# [3] = F3 sticks device, direct diffusion, 40 mL and four sticks (SPME GC/MS); conditions: four sticks
# Description: Three devices containing 40 mL of F3 feline facial pheromone product and four rattan sticks were prepared and left on diffusion. Every Monday, Wednesday and Friday, the diffusion of the pheromone in air was checked by analysis by gas chromatography coupled with mass spectrometer (GC/MS) and SPME (solid phase microextraction) until there is no liquid left (about 22 days).
# To that purpose, the studied device was taken and placed into a closed space (in our case an aquarium turned over) containing the SPME fiber as shown on FIG. 24.
# The SPME fiber was left for two hours to give the time for the molecules to adsorb on the fiber, then the fiber was injected into the GC/MS instrument for analysis.
# Analysis were carried out using gas chromatography with mass spectrometer. The instrument was a GCMS QP2010SE® from Shimadzu with an AOC6000® Autosampler. The separation was performed on a ZB-5 MS® column (30 m×0.25 mm×0.25 μm, stationary phase: 95% Dimethylpolysiloxane, 5% Phenyl-Arylene) from Phenomenex. The GC oven temperature was initially held at 100° C. for 1 minute then increased at a pace of 10° C./min to 120° C. and left at this temperature for 3 minutes. Finally, the oven temperature was increased at a pace of 10° C./min to 240° C. and left at this temperature for 10 minutes. The carrier gas was helium at 1 mL/min. Analysis were performed in split mode using a split/splitless injector (Temperature: 250° C., split: 1:20). The SPME fiber was directly injected into the injector and left for 30 minutes. Separated molecules were detected using a mass spectrometer which was operated in electron impact ionization (EI) in both full scan (FS) and single ion monitoring (SIM) modes, so called FASST (Fast Automated SCAN/SIM type) mode. The interface temperature was set at 300° C. and electron impact source temperature at 250° C. The analyser was a quadrupole.
# For the measurement of the relative quantity of active ingredient spreading in air, the area of the chromatographic peak corresponding to the compound was measured using Shimadzu GCMS-Solution software.
# [4] = Direct diffusion of diffuser blocks (SPME GC/MS); conditions: despecified pheromone 2%, 4 weeks
# Description: Analyses were carried out using gas chromatography (GC) coupled to a mass spectrometer (MS) detector, a technique commonly referred to as GCMS. The molecules of interest were extracted using the Solid Phase Micro-Extraction (SPME) technique. The instrument used was the following: QP2010SE® from Shimadzu (See FIG. 4).
# AOC 6000® automatic feeder • Extraction/SPME fiber: polyacrylate/Fused silica (85 μm), 23 Ga. • Adsorption time: 2 hours (exposure time of fiber above block) (See FIG. 4) • Desorption time: 30 minutes (fiber exposure time in injector) • Fiber-block distance: 2 cm • Injection: split/splitless injector • Temperature: 250° C., split 50 mode. • Separation: ZB-FFAP® column (Phénomenex), length: 30 m, diameter: 250 μm, film thickness: […]
# • Carrier gas: Helium (He) • Analysis time: 18 min (not including time to return to equilibrium between each analysis injection • Detection: mass spectrometer with electron impact source/analyzer: quadrupole. • Source temperature: 200° C. • Interface temperature: 250° C. • Scan m/z 50 to m/z 500 • SIM with ions 55, 66 and 74.
# Analyses were carried out in triplicate to verify reproducibility of results.
# With the SPME method, results are evaluated by measuring the chromatographic peak area. The data have been plotted on diffusion curve (see FIGS. 5 and 6).
# [5] = DAP, 24 h after immersion of sticks
# [6] = DAP, 21 days after immersion of sticks (empty tank)
# [7] = Despecified pheromone (Core), 5 days after immersion of the sticks
# [8] = Despecified pheromone (Core), 21 days after immersion of sticks (empty tank)
# [9] = F3, 24 h after immersion of sticks
# [10] = F3, 21 days after immersion of sticks (empty tank)
# [11] = F3P, 24 h after immersion of the sticks
# [12] = F3P, 21 days after immersion of sticks (empty tank)
smiles,measurement,setting,value
"CCCCCCCC/C=C\CCCCCCCC(=O)OC [methyl oleate, methyl (Z)-octadec-9-enoate]",ratio of molecules diffused through the sticks,[1]; [5],2 % (w/w)
same,ratio of molecules diffused through the sticks,[1]; [6],3.5 % (w/w)
same,ratio of molecules diffused through the sticks,[1]; [7],3 % (w/w)
same,ratio of molecules diffused through the sticks,[1]; [8],4 % (w/w)
same,ratio of molecules diffused through the sticks,[1]; [9],2 % (w/w)
same,ratio of molecules diffused through the sticks,[1]; [10],4 % (w/w)
same,ratio of molecules diffused through the sticks,[1]; [11],0.6 % (w/w)
same,ratio of molecules diffused through the sticks,[1]; [12],2 % (w/w)
same,direct diffusion over time,[2],slight increase over time
same,direct diffusion over time,[3],slight increase of the diffusion over time
same,direct diffusion from the diffuser block,[4],lowest intensity
"CCCCCCCCCCCCCCCC(=O)OC [methyl palmitate, methyl hexadecanoate]",ratio of molecules diffused through the sticks,[1]; [5],9.5 % (w/w)
same,ratio of molecules diffused through the sticks,[1]; [6],12 % (w/w)
same,ratio of molecules diffused through the sticks,[1]; [7],19 % (w/w)
same,ratio of molecules diffused through the sticks,[1]; [8],22 % (w/w)
same,ratio of molecules diffused through the sticks,[1]; [9],3 % (w/w)
same,ratio of molecules diffused through the sticks,[1]; [10],5 % (w/w)
same,ratio of molecules diffused through the sticks,[1]; [11],1 % (w/w)
same,ratio of molecules diffused through the sticks,[1]; [12],3.4 % (w/w)
same,direct diffusion over time,[2],slight increase over time
same,direct diffusion over time,[3],slight increase of the diffusion over time
same,direct diffusion from the diffuser block,[4],diffuse better
